Test system: onychomycosis
Assay: not given
Settings: after nail removal; cited from earlier work

Compound | Effectiveness in topically treating onychomycosis
CC(=O)N1CCN(c2ccc(OCC3COC(Cn4ccnc4)(c4ccc(Cl)cc4Cl)O3)cc2)CC1 (stereo not drawn) [ketoconazole] | effective
Clc1ccc(COC(Cn2ccnc2)c2ccc(Cl)cc2Cl)c(Cl)c1 (stereo not drawn) [miconazole] | effective

Test system: not listed separately
Assay: pH measurement of acidifiers with a glass electrode
Format: physicochemical
Settings: after 1 min
Text: Apparent pH is the pH reading measured by a glass pH electrode. The preferred acidifiers are 37% HCl, 10% HCl, sulfuric acid, o-phosphoric acid, nitric acid, acetic acid, L (+)-lactic acid, salicylic acid, and glycolic acid. The particularly preferred acidifiers are 37% HCl and 10% HCl. If the total weight of the acidified composition is 100 parts, the acidifier should be about 0.05 to about 50% w/w (w/w=weight/weight), preferably, from about 0.1% to about 10%, more preferably form about 0.5% to about 5%.

Compound | pH reading
CC(=O)O [Acetic acid] | -0.19 to -0.28
O=C(O)CO [Glycolic Acid] | 0.43
C[C@H](O)C(=O)O [L(+)-lactic acid] | 0.31
O=C(O)c1ccccc1O [Salicylic acid] | 2.92

— patent US6231875A, “Acidified composition for topical treatment of nail and skin conditions” (Johnson & Johnson Consumer Companies, Inc., priority 1999, dated 2001)
